Usually Ki stands for the dissociation constant of the complex between target and ligand, obtained from inhibition or displacement. What is called inhibition is the change of the read-out against control, counted positive when it falls.

The target of assay [1] is T1, BACE1 (Homo sapiens (Human), UniProt P56817). In words: BACE1 binding assay (SPA-based, radioligand). The settings on record: pH 4.5, Ki=IC50/(1+L/Kd). The procedure:
The binding assay was performed as SPA-based assay using a biotinylated form of human BACE1 recombinantly expressed and subsequently purified from Freestyle HEK293 cells. The binding assay was run in a 50 mM sodium acetate buffer, pH 4.5 containing 50 mM NaCl and 0.03% Tween-20 in white clear bottom 384 plates (Corning #3653). 10 nM (final concentration) radioligand ([^3H]-N-((1S,2R)-1-benzyl-3-cyclopropylamino-2-hydroxy-propyl)-5-(methanesulfonyl-methyl-amino)-N-((R)-1-phenyl-ethyl)-isophthalamide) (TRQ11569 purchased from GE Healthcare) was mixed with test compound at a given concentration, 6 nM (final concentration) human BACE1 and 25 μg Streptavidin coated PVT core SPA beads (RPNQ0007, GE Healthcare Life Sciences) in a total volume of 40 μl. Several concentrations of each test compound were tested in the assay for IC50 determination. The plates were incubated for one hour at room temperature and counted in a Wallac Trilux counter. Total and non-specific binding were determined using buffer and 1 μM (final concentration) of the high affinity BACE1 reference inhibitor (S)-6-[3-chloro-5-(5-prop-1-ynyl-pyridin-3-yl)-thiophen-2-yl]-2-imino-3,6-dimethyl-tetrahydro-pyrimidin-4-one, respectively. For each test compound, a IC50 value (the concentration mediating 50% inhibition of the specific binding of the radioligand) was determined from concentration-response curve and used to calculate the Ki from the equation Ki=IC50/(1+L/Kd), where L and Kd are the final concentration of the radioligand used in the assay and the dissociation constant of the radioligand, respectively. The Kd of the radioligand was determined from saturation binding experiments.

Assay [2] addresses T1, BACE1. In words: BACE1 efficacy assay (FRET-based, commercial BACE1 kit). Format: biochemical. The settings on record: 10 μM test compound. The procedure: The efficacy assay was performed as a FRET-based assay using a commercially available BACE1 kit (Life Technologies, P2985). 2 μl test compound at 10 μM (final concentration) and 15 μl BACE1 enzyme from the kit (final concentration 3 nM) were preincubated for 15 minutes at room temperature before addition of 15 μl of substrate from the kit (250 nM final concentration) and incubated for additional 90 minutes at room temperature. The assay plate was subsequently read in a Pherastar (Ex540/Em590). The enzyme activity observed in presence of test compound were normalized to the enzyme activity observed in presence of buffer and 10 μM (final concentration) of the high affinity BACE1 reference inhibitor (S)-6-[3-Chloro-5-(5-prop-1-ynyl-pyridin-3-yl)-thiophen-2-yl]-2-imino-3,6-dimethyl-tetra-hydropyrimidin-4-one, respectively. The efficacy of the test compounds was evaluated at 10 μM (final concentration) and defined as the percent inhibition of the enzyme activity using the equation % inhibition=100%−normalized enzyme activity in percent.

In a further assay the test system is Aβ40. The assay can be described thus: Assessment of Aβ peptide levels in rat brain and plasma following BACE1 inhibition (Aβ40 ELISA). In kind it is in vivo. The conditions noted are these: 3 hours post dose, vs vehicle. The method, then:
Assessment of Aβ Peptide Levels in Rat Brain and Plasma Following BACE1 Inhibition. Animals.
Young adult Male Sprague Dawley rats of approximately 250 g weight were purchased from Charles River and received 0-30 mg/kg of vehicle (10% HP betaCD+1M MeSO4, pH 2.5) or test compounds (dissolved in vehicle) only by oral gavage (p.o). The compounds are dosed at a volume of […]. Cohorts of 5-10 animals were established for each treatment condition.
At T=180 minutes after initial dosing the animals were stunned and decapitated with a guillotine. Trunk-blood was sampled in EDTA coated tubes after decapitation of the animal. The blood was centrifuged at 2200 G at 4° C. for 15 minutes and the plasma was collected and frozen at −80° C. The blood was aliquoted for Aβ ELISA and DMPK analysis. Immediately following sacrifice, the brain was extracted and split into 2 halves. The right hemibrains were snap frozen on dry ice and stored at −80° C. The left half was dissected; with the front forebrain taken for Aβ ELISA and the remainder used for DMPK analysis. These samples were also snap frozen on dry ice and stored at −80° C. until use for analysis.
The cortex samples were thawed slightly on wet ice before they were homogenized with a small volume dispersing instrument (T10 basic ULTRA-TURRAX®) which was set at speed 5 for approximately 5-7 sec. The tissue was processed in a 10 times volume of the weight, for example 100 mg of tissue was homogenized in 1000 μL of Homogenization buffer. Homogenization buffer: 50 ml Milli Q water+[…]+0.2% Diethylamin (DEA)+1 tablet of Complete Protease inhibitor cocktail+1 nM 4-(2-aminoethyl)benzenesulfonyl fluoride hydrochloride irreversible serine protease inhibitor (AEBSF).
After homogenization 450 μL aliquots of the samples are collected into a 1.5 ml Eppendorf tube and placed on wet ice, 0.5% NP-40 (50 ul) was added to all samples and then they were incubated on ice for 30 min. After which all samples were sonicated using an Ultrasonic homogenizer with 20 kHz homogeneous sound (SONOPLUS HD2070, Bandelin Electronic) 10 pulse set at 12-13% power to extract all the Aβ species. The samples were then centrifuged (Ole Dich 157 MPRF Micro centrifuge) at 20000 G for 20 minutes at 4° C. After centrifugation 285 μL of the supernatant was pipetted into 600 μL microtubes tubes and neutralized with 15 μL of 1M Tris-HCL buffer.
WAKO 294-62501 Human/Rat Abeta amyloid (40) kit was used for all ELISA analyses. 30 μL plasma samples or 30 μL of the cortex supernatants generated as described above were placed in 600 μL microtubes tubes on wet ice. To this 30 μL of 8M Urea (AppliChem A1049, 9025) are added to generate a 2-fold dilution. Both plasma and cortex supernatants are incubated on ice for 30 min. Standard rows were prepared from the standard peptide stock provided in the kit and standard diluent containing 1.6M Urea (200 μL 8M Urea+800 μL of standard diluent) and 0.8M Urea (400 μL 8M Urea+3600 μL Standard diluent). A serial 2-fold dilution of Aβ40 from 100 pmol/ml to 0 pmol/L was prepared for the assay.
After incubation with urea, all samples were further diluted by addition of 5 times standard diluent from the Kit. This was done by adding 240 μL Standard Diluent to 60 μL sample/urea mixture, which was then mixed well. 100 μL of each diluted sample was pipetted into designated wells of the ELISA plate in duplicates. The plate was then covered and incubated overnight at 4° C. The following day, the ELISA kit was brought to room temperature before use. The incubated plate was washed 5 times with the 20× washing solution diluted in Milli Q water. 100 μL HRP-conjugate was applied to each well, and the plate was covered and incubates at 4° C. for 1 hr. The wash was repeated again for 5 times. 100 μL 3,3′,5,5′-Tetramethylbenzidine (TMB) solution was applied to each well and the plate was covered and incubated in the dark at room temperature for 30 minutes. […]
Background: An ELISA detects its analyte on a solid surface through an enzyme-linked reagent.

T1 sequence (P56817 46-501): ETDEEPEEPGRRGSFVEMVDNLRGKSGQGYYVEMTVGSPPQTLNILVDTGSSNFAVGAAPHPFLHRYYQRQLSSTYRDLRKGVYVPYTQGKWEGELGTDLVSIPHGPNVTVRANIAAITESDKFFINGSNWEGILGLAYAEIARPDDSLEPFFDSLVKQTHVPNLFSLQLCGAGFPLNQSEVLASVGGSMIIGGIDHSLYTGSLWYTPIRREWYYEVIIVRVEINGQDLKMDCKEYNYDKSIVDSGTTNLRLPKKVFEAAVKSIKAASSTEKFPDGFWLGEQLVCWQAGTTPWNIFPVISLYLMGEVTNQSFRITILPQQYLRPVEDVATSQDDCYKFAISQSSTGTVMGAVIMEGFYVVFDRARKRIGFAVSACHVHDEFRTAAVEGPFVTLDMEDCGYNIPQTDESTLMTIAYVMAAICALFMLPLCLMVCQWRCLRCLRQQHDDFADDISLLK

In turn, `COc1cnc(C(=O)Nc2cc(F)c(F)c([C@@]3(CF)N=C(N)CCC3(F)F)c2)cn1` [Compound 11, (S)-N-(3-(6-amino-3,3-difluoro-2-(fluoromethyl)-2,3,4,5-tetrahydropyridin-2-yl)-4,5-difluorophenyl)-5-methoxypyrazine-2-carboxamide] came in with a Ki at BACE1 [1] of 14 nM. On BACE1 [2], the inhibition at 10 µM was found to be 103%. In addition, the Aβ40 reduction in the assay with Aβ40 (rat brain, 10 mg/kg p.o.) amounted to 43%; in the assay on Aβ40 (rat brain, 30 mg/kg p.o.) it was 50%; with Aβ40 (rat plasma, 10 mg/kg p.o.), 31%; with Aβ40 (rat plasma, 30 mg/kg p.o.) it was 37%.

The record behind these values is patent US10058540B2, “2-amino-5,5-difluoro-6-(fluoromethyl)-6-phenyl-3,4,5,6-tetrahydropyridines as BACE1 inhibitors” (H. Lundbeck A/S, priority 2014, dated 2018).
